Measured values reported in ChEMBL document CHEMBL3714749, “Quinoxaline derivatives as gpr6 modulators” (2014).

tested on: Rattus norvegicus; assay: Reversal of haloperidol-induced catalepsy in Sprague-Dawley rat at 10 mg/kg, sc after 30 mins relative to control; type: functional; settings: 0.5 h

Compound	inhibition in vivo at 10 mg/kg
N#Cc1ccc2nc(NC3CC3)c(N3CCC(Cc4ccc(F)cc4F)CC3)nc2c1	36.9%

tested on: Rattus norvegicus; assay: Reversal of haloperidol-induced catalepsy in Sprague-Dawley rat at 10 mg/kg, sc after 120 mins relative to control; type: functional; settings: 2 h

Compound	inhibition in vivo at 10 mg/kg
N#Cc1ccc2nc(NC3CC3)c(N3CCC(Cc4ccc(F)cc4F)CC3)nc2c1	25.1%

molecular target: G-protein coupled receptor 6 (Homo sapiens, UniProt P46095); assay: Activity at GPR6 (unknown origin) expressed in CHOK1 cells assessed as inhibition of constitutive cAMP activity incubated for 45 mins by HTRF based cAMP detection assay; type: functional, cell-based, CHO-K1; settings: not given
Sequence (P46095 whole entry): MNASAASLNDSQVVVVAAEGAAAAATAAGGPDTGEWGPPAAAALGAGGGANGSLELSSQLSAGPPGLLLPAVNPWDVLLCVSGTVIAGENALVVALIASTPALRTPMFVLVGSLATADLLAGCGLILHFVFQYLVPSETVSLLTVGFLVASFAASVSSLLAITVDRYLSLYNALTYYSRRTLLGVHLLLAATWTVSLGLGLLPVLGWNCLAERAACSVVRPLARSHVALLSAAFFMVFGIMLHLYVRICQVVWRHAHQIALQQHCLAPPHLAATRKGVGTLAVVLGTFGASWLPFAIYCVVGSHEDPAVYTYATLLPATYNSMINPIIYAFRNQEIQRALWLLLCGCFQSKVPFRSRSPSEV

Compound	IC50
Cc1ccc(S(=O)(=O)N2CCN(c3nc4cc(C#N)ccc4nc3NC3CC3)CC2)cc1	4740 nM
CSc1ccc(OC2CCN(c3nc4cnncc4nc3NC3CC3)CC2)c(F)c1	14 nM
COc1ccc(OC2CCN(c3nc4ccncc4nc3NC3CC3)CC2)c(F)c1	44 nM
Cc1c(Cl)cc(F)cc1S(=O)(=O)N1CCN(c2nc3cc(C#N)ccc3nc2NC2CC2)CC1	960 nM
O=C(c1c(Cl)ccc(F)c1F)C1CCN(c2nc3cnccc3nc2NC2CC2)CC1	3900 nM
N#Cc1ccc2nc(NC3CCC3)c(N3CCN(C(=O)c4ccc(Cl)cc4)CC3)nc2c1	300 nM
O=C(c1ccc(C(F)F)cc1)N1CCN(c2nc3cnccc3nc2NC2CC2)CC1	2650 nM
CN(C)C(=O)c1cc2nc(NC3CC3)c(N3CCC([C@@H](F)c4ccc(F)cc4F)CC3)nc2cn1	8 nM
Cc1nccc2nc(NC3CC3)c(N3CCC(Cn4ccc(F)cc4=O)CC3)nc12	380 nM
Clc1ccccc1OC1CCN(c2nc3cnccc3nc2NC2CC2)CC1	1510 nM
Cc1nccc2nc(NC3CC3)c(N3CCC(Oc4ccc(F)cc4F)CC3)nc12	18 nM
CN(C)C(=O)c1cc2nc(NC3CC3)c(N3CCC(Oc4ccc(F)cc4F)CC3)nc2cn1	5 nM
N#Cc1ccc2nc(NC3CC3)c(N3CCN(S(=O)(=O)c4ccccc4Br)CC3)nc2c1	1850 nM
COc1ccc(OC2CCN(c3nc4ccncc4nc3NC(C)C)CC2)c(F)c1	12 nM
Cc1cc2nc(NC3CC3)c(N3CCC(C(F)c4ccc(F)cc4F)CC3)nc2cn1 (centres undefined)	7 nM
N#Cc1ccc2nc(NC3CC3)c(N3CCC(Cc4ccc(F)cc4F)CC3)nc2c1	64 nM
CC(C)Nc1cc(Cl)cc(C(=O)C2CCN(c3nc4ccc(C#N)cc4nc3NC(C)C)CC2)c1	276 nM
Cc1nccc2nc(NC3CC3)c(N3CCC(Cc4ccc(F)cc4F)CC3)nc12	2 nM
N#Cc1cccc(OC2CCN(c3nc4cnccc4nc3NC3CC3)CC2)c1	15400 nM
Fc1ccc(CC2CCN(c3nc4cnc(Cl)cc4nc3NC3CC3)CC2)c(F)c1	31 nM
CN(C)C(=O)c1cc2nc(NC3CC3)c(N3CCN(C(=O)c4cc(F)ccc4Cl)CC3)nc2cn1	1570 nM
CN(C)C(=O)c1cc2nc(NC3CC3)c(N3CCC([C@H](F)c4ccc(F)cc4F)CC3)nc2cn1	10 nM
N#Cc1ccc2nc(NC3CC3)c(N3CCN(S(=O)(=O)c4ccccc4C#N)CC3)nc2c1	4340 nM
Cc1cc2nc(NC3CC3)c(N3CCC([C@@H](F)c4ccc(F)cc4F)CC3)nc2cn1	6 nM

Compound	IC50
N#Cc1cccc2nc(NC3CC3)c(N3CCN(Cc4cc(Cl)ccc4Cl)CC3)nc12	650 nM
COCCNc1nc2ccncc2nc1N1CCC(Oc2ccc(F)cc2F)CC1	670 nM
Cc1nccc2nc(NC3CC3)c(N3CCC(C(F)(F)c4cc(F)ccc4F)CC3)nc12	45 nM
COc1cccc(CN2CCN(c3nc4cnncc4nc3NC(C)C)CC2)c1	44 nM
N#Cc1nccc2nc(NC3CC3)c(N3CCN(Cc4ccc(F)cc4F)CC3)nc12	66 nM
CC(C)Nc1nc2cc(C#N)ncc2nc1N1CCC(C(=O)c2cc(F)cc(F)c2)CC1	28 nM
Fc1cc2nc(NC3CC3)c(N3CCN(Cc4cc(Cl)ccc4Cl)CC3)nc2cc1F	800 nM
Fc1ccc([C@@H](F)C2CCN(c3nc4cnccc4nc3NC3CC3)CC2)c(F)c1	24 nM
N#Cc1ccc2nc(NC3CC3)c(N3CCN(S(=O)(=O)c4ccccc4F)CC3)nc2c1	4590 nM
CC(C)Nc1nc2ccc(C#N)cc2nc1N1CCC(C(F)c2cc(F)ccc2F)CC1 (centres undefined)	98 nM
CC(C)Nc1nc2cc(C(=O)N(C)C)ncc2nc1N1CCC(C(=O)c2cc(F)cc(F)c2)CC1	16 nM
CC(C)Nc1nc2cc(C(=O)N(C)C)ncc2nc1N1CCC(Oc2ccc(Cl)cc2F)CC1	6 nM
COc1ccc(CC2CCN(c3nc4cnncc4nc3NC(C)C)CC2)c(F)c1	15 nM
CC(C)Nc1nc2cnncc2nc1N1CCC(Oc2ccc(C#N)cc2F)CC1	72 nM
Fc1ccc(C(F)C2CCN(c3nc4cnc(Br)cc4nc3NC3CC3)CC2)c(F)c1 (centres undefined)	29 nM
COCCNc1nc2ccc(C#N)cc2nc1N1CCC(Cc2ccc(F)cc2F)CC1	250 nM
Fc1ccc(OC2CCN(c3nc4cc(Br)ccc4nc3NC3CC3)CC2)c(F)c1	1430 nM
N#Cc1ccc2nc(NC3CC3)c(N3CCC(Cn4cc(Cl)ccc4=O)CC3)nc2c1	930 nM
CN(C)C(=O)c1cc2nc(NCC(F)F)c(N3CCC(Oc4ccc(F)cc4F)CC3)nc2cn1	65 nM
N#Cc1ccc2nc(NCC(F)F)c(N3CCC(Cc4ccc(F)cc4F)CC3)nc2c1	71 nM
Fc1ccc(OC2CCN(c3nc4ccncc4nc3NC3CCC3)CC2)c(F)c1	14 nM
N#Cc1cccc2nc(N3CCN(Cc4cc(Cl)ccc4Cl)CC3)c(NC3CC3)nc12	1490 nM
CSc1ccc(OC2CCN(c3nc4cnccc4nc3NC3CC3)CC2)cc1	146 nM

Continued by falling IC50, values first:

IC50	Compound
79600 nM	O=C(c1ccc(Cl)c(Cl)c1)N1CCN(c2nc3ccccc3nc2NC2CC2)CC1
8390 nM	O=C(c1ccc(F)c(F)c1)C1CCN(c2nc3cnccc3nc2NC2CC2)CC1
6750 nM	O=C(c1cccs1)C1CCN(c2nc3cnccc3nc2NC2CC2)CC1
6640 nM	O=C(c1cc(Cl)ccc1Cl)N1CCN(c2nc3ccccc3nc2NC2CC2)CC1
6040 nM	CC(O)c1ccc(OC2CCN(c3nc4cnccc4nc3NC3CC3)CC2)cc1 (centres undefined)
5780 nM	Cc1ccccc1C(=O)C1CCN(c2nc3cnccc3nc2NC2CC2)CC1
4290 nM	N#Cc1ccc2nc(NC3CC3)c(N3CCN(S(=O)(=O)c4ccc(OC(F)(F)F)cc4)CC3)nc2c1
3290 nM	Clc1ccc(Cl)c(CN2CCN(c3nc4ccccc4nc3Nc3ccccn3)CC2)c1
2880 nM	N#Cc1ccccc1OC1CCN(c2nc3cnccc3nc2NC2CC2)CC1
2740 nM	O=C(c1cccnc1Br)C1CCN(c2nc3cnccc3nc2NC2CC2)CC1
2540 nM	N#Cc1cccc(S(=O)(=O)N2CCN(c3nc4cc(C#N)ccc4nc3NC3CC3)CC2)c1
1940 nM	N#Cc1ccc(OC2CCN(c3nc4cnccc4nc3NC3CC3)CC2)cc1
1920 nM	COc1ccccc1C(=O)C1CCN(c2nc3cnccc3nc2NC2CC2)CC1
1740 nM	CC(=O)c1ccc(OC2CCN(c3nc4cnccc4nc3NC3CC3)CC2)cc1
1360 nM	N#Cc1ccc2nc(NC3CC3)c(N3CCN(S(=O)(=O)c4cc(C(F)(F)F)ccc4Cl)CC3)nc2c1
1020 nM	CCOc1ccc(OC2CCN(c3nc4cnccc4nc3NC3CC3)CC2)cc1
770 nM	Cc1cc2nc(NC3CC3)c(N3CCC(Cn4cc(Cl)ccc4=O)CC3)nc2cn1
570 nM	N#Cc1ccc2nc(NC3CC3)c(N3CCN(S(=O)(=O)c4ccc(Cl)cc4)CC3)nc2c1
530 nM	CS(=O)(=O)c1ccc(C(=O)N2CCN(c3nc4ccccc4nc3NC3CC3)CC2)cc1
450 nM	Cc1cc(S(=O)(=O)N2CCN(c3nc4cc(C#N)ccc4nc3NC3CC3)CC2)c(C)cc1Cl
420 nM	N#Cc1ccc2nc(NC3CC3)c(N3CCN(S(=O)(=O)c4ccc(Br)s4)CC3)nc2c1
380 nM	N#Cc1ccc2nc(NC3CC3)c(N3CCN(Cc4cc(F)ccc4F)CC3)nc2c1
340 nM	COCCNc1nc2ccc(C#N)cc2nc1N1CCC(C(F)c2ccc(F)cc2F)CC1 (centres undefined)

IC50	Compound
310 nM	Clc1ccc(OC2CCN(c3nc4cnccc4nc3NC3CC3)CC2)cc1
270 nM	FC(F)Oc1ccc(Cl)cc1CN1CCN(c2nc3cnccc3nc2NC2CC2)CC1
160 nM	N#Cc1ccc2nc(NCCC(F)(F)F)c(N3CCC(Oc4ccc(F)cc4F)CC3)nc2c1
140 nM	Fc1ccc(F)c(CN2CCN(c3nc4ccncc4nc3NC3CC3)CC2)c1
120 nM	Fc1ccc(F)c(CN2CCN(c3nc4cnccc4nc3NC3CC3)CC2)c1
93 nM	Cc1cc2nc(NC3CC3)c(N3CCC(S(=O)(=O)c4ccc(F)cc4)CC3)nc2cn1
89 nM	N#Cc1ccc(Cl)c(C(=O)C2CCN(c3nc4cnc(Cl)cc4nc3NC3CC3)CC2)c1
88 nM	COc1ccc(CN2CCN(c3nc4c(C#N)nccc4nc3NC3CC3)CC2)c(F)c1
69 nM	N#Cc1ccc(F)c(C(=O)C2CCN(c3nc4cnccc4nc3NC3CC3)CC2)c1
49 nM	CC(C)Nc1nc2ccc(C#N)cc2nc1N1CCC([C@@H](F)c2ccc(F)cc2F)CC1
46 nM	Fc1ccc(Cl)cc1C(F)(F)C1CCN(c2nc3cnccc3nc2NC2CC2)CC1
40 nM	CC(C)Nc1nc2cc(C(=O)N(C)C)ncc2nc1N1CCN(Cc2ccc(F)cc2F)CC1
39 nM	CCNc1nc2cnccc2nc1N1CCC(Oc2ccc(OC)cc2F)CC1
30 nM	COCCNc1nc2ccncc2nc1N1CCC(Cc2ccc(F)cc2F)CC1
30 nM	CC[C@@H](C)Nc1nc2cnncc2nc1N1CCC(Oc2ccc(OC)cc2F)CC1
29 nM	N#Cc1ccc2nc(N3CCC(C(F)c4ccc(F)cc4F)CC3)c(NC3CC3)nc2c1 (centres undefined)
29 nM	CC(C)Nc1nc2ccncc2nc1N1CCC(C(F)c2ccc(F)cc2F)CC1 (centres undefined)
29 nM	COc1cc2nc(NC3CC3)c(N3CCC(Cc4ccc(F)cc4F)CC3)nc2cn1
16 nM	Fc1ccc(C(F)(F)C2CCN(c3nc4cnccc4nc3NC3CC3)CC2)c(F)c1
11 nM	N#Cc1cc2nc(NC3CC3)c(N3CCC([C@H](F)c4ccc(F)cc4F)CC3)nc2cn1
9 nM	Cc1nccc2nc(NC3CC3)c(N3CCC(C(F)c4ccc(F)cc4F)CC3)nc12 (centres undefined)
8 nM	CC(C)Nc1nc2cnncc2nc1N1CCC(Oc2ccc(OCF)cc2F)CC1
